Biological target: T1, LipB52 (Pseudomonas fluorescens, UniProt Q6GX93)
T1 construct: lipase fused at its N-terminus to the C-terminus of the FLO flocculation domain (Saccharomyces cerevisiae ATCC 60715) as display anchor
T1 sequence (Q6GX93 1-617): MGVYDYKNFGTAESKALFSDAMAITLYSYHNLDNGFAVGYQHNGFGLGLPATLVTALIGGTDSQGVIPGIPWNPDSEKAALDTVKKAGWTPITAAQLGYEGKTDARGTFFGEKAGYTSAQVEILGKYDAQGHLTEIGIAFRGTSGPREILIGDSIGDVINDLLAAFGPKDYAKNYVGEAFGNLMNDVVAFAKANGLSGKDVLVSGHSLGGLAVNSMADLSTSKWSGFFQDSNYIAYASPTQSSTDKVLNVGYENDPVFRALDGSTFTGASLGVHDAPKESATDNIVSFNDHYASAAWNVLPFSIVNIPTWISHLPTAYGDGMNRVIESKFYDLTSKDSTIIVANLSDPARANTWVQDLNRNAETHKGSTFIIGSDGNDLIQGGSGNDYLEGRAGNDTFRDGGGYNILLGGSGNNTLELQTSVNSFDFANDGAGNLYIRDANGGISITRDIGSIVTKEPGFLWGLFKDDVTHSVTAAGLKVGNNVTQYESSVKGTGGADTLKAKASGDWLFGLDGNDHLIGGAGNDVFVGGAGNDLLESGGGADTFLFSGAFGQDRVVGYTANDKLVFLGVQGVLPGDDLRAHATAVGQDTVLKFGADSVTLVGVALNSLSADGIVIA
Assay: p-nitrophenol release by displayed whole cells
Format: cell-based
Conditions: yeast surface-displayed (whole-cell) enzyme

| SMILES | p-nitrophenol release by displayed whole cells (pH 8.0, 40 °C) | p-nitrophenol release by displayed whole cells (conditions not stated for this substrate) |
| --- | --- | --- |
| CCCCCCCCCC(=O)Oc1ccc([N+](=O)[O-])cc1 [C10, p-nitrophenol-caprate] | the optimum substrate was p-nitrophenol-caprate (C10) | – |
| CCCCCCCCCCCC(=O)Oc1ccc([N+](=O)[O-])cc1 [C12, p-nitrophenol ester (C12)] | – | exhibited evident hydrolysis activity towards the p-nitrophenol ester |

— PMC2267459, “Efficient display of active lipase LipB52 with a Pichia pastoris cell surface display system and comparison with the LipB52 displayed on Saccharomyces cerevisiae cell surface” (BMC Biotechnology, 2008)
